Experimental data published in patent US20160032404A1, “BIOMARKERS FOR PREDICTING RESPONSE OF DLBCL TO TREATMENT WITH A BTK INHIBITOR” (Pharmacyclics LLC, priority 2014, published 2016).

Test system: TMD8-resistant cells
Assay: CellTiter-Glo luminescent cell viability assay, TMD8-resistant versus TMD8-WT cells
Type: cell-based
Settings: ABT-199 for 3 days

SMILES: CC1(C)CCC(CN2CCN(c3ccc(C(=O)NS(=O)(=O)c4ccc(NCC5CCOCC5)c([N+](=O)[O-])c4)c(Oc4cnc5[nH]ccc5c4)c3)CC2)=C(c2ccc(Cl)cc2)C1 [ABT-199]
- sensitivity to drug (effect on cell growth) compared to TMD8-WT cells: more sensitive
